Experimental data as given in the supplement of paper PMC6045584.
± gives the standard deviation of the averaged measurements.

How the values were obtained:
[1] = compound: Cc1nc(Nc2n[nH]c3c2CN(C(=O)N[C@H](CN(C)C)c2ccccc2)C3(C)C)c2sccc2n1; assay: surviving fraction relative to DMSO-only wells; higher = less growth inhibition; conditions: exposure time: 5 days
In short: (§1)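 At 250–500 cells per well in 384-well plates, log-phase tumour cell lines were seeded and, 24 hours on, exposed continuously for five days to inhibitors at 0.5, 1, 5, 10, 50, 100, 500 and 1000 nM. Viability readout was CellTiter-Glo luminescence, reported as surviving fraction normalised to the median of DMSO-only wells.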

[2] = compound: O=C(NOCC1CC1)c1ccc(F)c(F)c1Nc1ccc(I)cc1Cl; assay: as above; conditions: exposure time: 5 days
In short: as §1

Test System | surviving fraction ([1]; 0.5 nM) | surviving fraction ([1]; 1 nM) | surviving fraction ([1]; 5 nM) | surviving fraction ([1]; 10 nM) | surviving fraction ([1]; 50 nM) | surviving fraction ([1]; 100 nM) | surviving fraction ([1]; 500 nM) | surviving fraction ([1]; 1000 nM) | surviving fraction ([2]; 0.5 nM) | surviving fraction ([2]; 1 nM) | surviving fraction ([2]; 5 nM) | surviving fraction ([2]; 10 nM) | surviving fraction ([2]; 50 nM) | surviving fraction ([2]; 100 nM) | surviving fraction ([2]; 500 nM) | surviving fraction ([2]; 1000 nM)
SG27 HEADNECK | 0.936 ± 0.024 | 0.931 ± 0.029 | 0.64 ± 0.069 | 0.612 ± 0.066 | 0.408 ± 0.069 | 0.373 ± 0.053 | 0.199 ± 0.046 | 0.115 ± 0.01 | 0.918 ± 0.036 | 1.02 ± 0.075 | 0.973 ± 0.11 | 0.986 ± 0.075 | 1.02 ± 0.22 | 0.988 ± 0.017 | 1.13 ± 0.12 | 1.24 ± 0.19
SG28 HEADNECK | 0.97 ± 0.064 | 1 ± 0.056 | 0.818 ± 0.009 | 0.716 ± 0.039 | 0.667 ± 0.051 | 0.523 ± 0.063 | 0.186 ± 0.0036 | 0.049 ± 0.0053 | 0.871 ± 0.049 | 1.03 ± 0.061 | 0.836 ± 0.024 | 0.932 ± 0.099 | 0.801 ± 0.06 | 0.781 ± 0.065 | 0.633 ± 0.023 | 0.616 ± 0.017
SG31 HEADNECK | 0.947 ± 0.073 | 1.01 ± 0.088 | 0.671 ± 0.076 | 0.909 ± 0.17 | 0.456 ± 0.0092 | 0.609 ± 0.067 | 0.241 ± 0.024 | 0.344 ± 0.033 | 1.02 ± 0.087 | 0.977 ± 0.097 | 0.951 ± 0.14 | 1.06 ± 0.18 | 0.778 ± 0.12 | 0.756 ± 0.11 | 0.575 ± 0.032 | 0.547 ± 0.088
SG32 HEADNECK | 1.04 ± 0.29 | 0.756 ± 0.027 | 0.363 ± 0.013 | 0.247 ± 0.017 | 0.206 ± 0.014 | 0.148 ± 0.021 | 0.0707 ± 0.012 | 0.041 ± 0.011 | 0.546 ± 0.12 | 0.858 ± 0.042 | 0.883 ± 0.22 | 1.03 ± 0.049 | 0.701 ± 0.085 | 0.805 ± 0.065 | 0.751 ± 0.059 | 0.818 ± 0.079
SG43 HEADNECK | 1.23 ± 0.11 | 1.11 ± 0.22 | 0.921 ± 0.13 | 0.784 ± 0.34 | 1.14 ± 0.2 | 0.959 ± 0.16 | 0.971 ± 0.055 | 1.35 ± 0.2 | 1.05 ± 0.079 | 0.969 ± 0.011 | 0.853 ± 0.17 | 0.676 ± 0.16 | 0.567 ± 0.1 | 0.521 ± 0.06 | 0.387 ± 0.07 | 0.333 ± 0.064
SIHA CERVIX | 0.827 ± 0.039 | 0.689 ± 0.052 | 0.555 ± 0.023 | 0.487 ± 0.026 | 0.419 ± 0.0098 | 0.391 ± 0.0081 | 0.262 ± 0.031 | 0.146 ± 0.017 | 0.754 ± 0.016 | 0.8147 ± 0.0075 | 0.955 ± 0.058 | 0.923 ± 0.027 | 0.899 ± 0.018 | 0.873 ± 0.06 | 0.709 ± 0.042 | 0.765 ± 0.067
SJSA1 BONE | 0.972 ± 0.02 | 0.901 ± 0.011 | 0.747 ± 0.018 | 0.696 ± 0.057 | 0.448 ± 0.015 | 0.393 ± 0.025 | 0.289 ± 0.007 | 0.243 ± 0.0072 | 1.05 ± 0.036 | 1.06 ± 0.035 | 1.119 ± 0.0046 | 1.11 ± 0.013 | 0.968 ± 0.025 | 0.925 ± 0.027 | 0.742 ± 0.028 | 0.591 ± 0.046
SKBR3 BREAST | 0.895 ± 0.11 | 0.834 ± 0.079 | 0.49 ± 0.027 | 0.498 ± 0.026 | 0.454 ± 0.063 | 0.419 ± 0.045 | 0.344 ± 0.021 | 0.1 ± 0.011 | 1.12 ± 0.17 | 1.1 ± 0.13 | 1.11 ± 0.07 | 1.1 ± 0.26 | 1.08 ± 0.19 | 1.05 ± 0.14 | 1.06 ± 0.14 | 1.05 ± 0.13
SNU475 LIVER | 0.974 ± 0.027 | 0.918 ± 0.067 | 0.724 ± 0.06 | 0.633 ± 0.032 | 0.509 ± 0.0096 | 0.467 ± 0.024 | 0.393 ± 0.015 | 0.244 ± 0.015 | 0.432 ± 0.042 | 0.908 ± 0.038 | 0.802 ± 0.022 | 0.941 ± 0.018 | 0.439 ± 0.015 | 0.883 ± 0.013 | 0.676 ± 0.018 | 0.741 ± 0.039
SUM44 BREAST | 1.08 ± 0.03 | 1.05 ± 0.065 | 1 ± 0.039 | 0.972 ± 0.041 | 0.983 ± 0.059 | 0.929 ± 0.038 | 0.735 ± 0.023 | 0.541 ± 0.023 | 0.951 ± 0.042 | 0.954 ± 0.062 | 1.04 ± 0.013 | 1.05 ± 0.032 | 1.07 ± 0.064 | 1.03 ± 0.043 | 1.02 ± 0.082 | 1.03 ± 0.047
SUM149 BREAST | 0.863 ± 0.011 | 1.01 ± 0.02 | 0.178 ± 0.014 | 0.365 ± 0.037 | 0.124 ± 0.0069 | 0.145 ± 0.011 | 0.0783 ± 0.0083 | 0.117 ± 0.013 | 0.375 ± 0.011 | 1.04 ± 0.067 | 0.908 ± 0.059 | 0.912 ± 0.032 | 0.512 ± 0.024 | 0.755 ± 0.1 | 0.407 ± 0.031 | 0.277 ± 0.053
SUM149.B1*.S BREAST | 1.05 ± 0.021 | 1.04 ± 0.013 | 0.473 ± 0.02 | 0.817 ± 0.017 | 0.279 ± 0.032 | 0.748 ± 0.032 | 0.24 ± 0.0095 | 0.691 ± 0.046 | 0.5813 ± 0.0045 | 0.956 ± 0.018 | 0.835 ± 0.058 | 0.945 ± 0.034 | 0.6543 ± 0.0045 | 0.789 ± 0.0088 | 0.503 ± 0.024 | 0.459 ± 0.05
SUM159 BREAST | 1.13 ± 0.2 | 1.15 ± 0.2 | 1.15 ± 0.21 | 1.1 ± 0.18 | 0.554 ± 0.027 | 0.407 ± 0.026 | 0.369 ± 0.028 | 0.292 ± 0.0093 | 1.06 ± 0.29 | 1.03 ± 0.12 | 1.11 ± 0.36 | 1.03 ± 0.24 | 0.84 ± 0.2 | 0.726 ± 0.1 | 0.518 ± 0.11 | 0.455 ± 0.023
SYO1 SYNOVIAL | 0.65 ± 0.017 | 0.486 ± 0.01 | 0.269 ± 0.023 | 0.214 ± 0.0035 | 0.166 ± 0.016 | 0.129 ± 0.013 | 0.0548 ± 0.0036 | 0.0347 ± 0.0023 | 0.469 ± 0.17 | 0.941 ± 0.093 | 0.833 ± 0.065 | 0.888 ± 0.034 | 0.542 ± 0.11 | 0.885 ± 0.023 | 0.784 ± 0.058 | 0.8681 ± 0.0032
T47D BREAST | 1.16 ± 0.034 | 1.12 ± 0.025 | 0.845 ± 0.033 | 0.879 ± 0.023 | 0.887 ± 0.032 | 0.87 ± 0.014 | 0.776 ± 0.013 | 0.528 ± 0.04 | 0.8871 ± 0.0062 | 0.999 ± 0.027 | 0.943 ± 0.018 | 1.008 ± 0.0089 | 0.899 ± 0.011 | 1.06 ± 0.04 | 0.996 ± 0.075 | 0.977 ± 0.07
U2OS BONE | 0.974 ± 0.038 | 0.901 ± 0.058 | 0.631 ± 0.016 | 0.453 ± 0.025 | 0.188 ± 0.025 | 0.142 ± 0.015 | 0.075 ± 0.0027 | 0.0633 ± 0.0015 | 1.03 ± 0.016 | 1.03 ± 0.019 | 1.02 ± 0.036 | 1.07 ± 0.042 | 0.983 ± 0.026 | 0.996 ± 0.035 | 0.95 ± 0.03 | 0.876 ± 0.03
VCAP PROSTATE | 0.665 ± 0.11 | 0.496 ± 0.006 | 0.428 ± 0.025 | 0.398 ± 0.025 | 0.451 ± 0.084 | 0.397 ± 0.022 | 0.245 ± 0.036 | 0.0417 ± 0.0063 | 0.925 ± 0.048 | 0.984 ± 0.082 | 0.923 ± 0.042 | 1.01 ± 0.12 | 0.86 ± 0.079 | 1.08 ± 0.068 | 1.05 ± 0.13 | 0.975 ± 0.0027
VP229 BREAST | 1.23 ± 0.085 | 1.15 ± 0.18 | 0.684 ± 0.099 | 0.597 ± 0.089 | 0.484 ± 0.055 | 0.386 ± 0.036 | 0.301 ± 0.031 | 0.311 ± 0.026 | 1.11 ± 0.054 | 1.16 ± 0.099 | 1.24 ± 0.14 | 1.08 ± 0.041 | 1.03 ± 0.13 | 0.908 ± 0.043 | 0.782 ± 0.039 | 0.769 ± 0.074
YAMATO SYNOVIAL | 0.784 ± 0.03 | 1.19 ± 0.074 | 0.432 ± 0.036 | 1.35 ± 0.091 | 0.354 ± 0.0056 | 1.42 ± 0.17 | 0.353 ± 0.024 | 1.39 ± 0.074 | 0.319 ± 0.026 | 1.07 ± 0.11 | 0.9 ± 0.084 | 1.2 ± 0.044 | 0.483 ± 0.013 | 1.1 ± 0.14 | 0.789 ± 0.064 | 0.928 ± 0.049
ZR751 BREAST | 0.872 ± 0.058 | 0.818 ± 0.052 | 0.575 ± 0.056 | 0.515 ± 0.0069 | 0.427 ± 0.029 | 0.463 ± 0.026 | 0.492 ± 0.041 | 0.462 ± 0.037 | 0.804 ± 0.14 | 0.868 ± 0.022 | 0.806 ± 0.049 | 0.814 ± 0.056 | 0.697 ± 0.071 | 0.846 ± 0.03 | 0.677 ± 0.03 | 0.682 ± 0.011
